The record followed here is US12077503B2, “Substituted cyclic amides and their use as herbicides” (FMC CORPORATION, priority 2015, dated 2024).

Holding throughout (format): in vivo
The subject of experiment [1] is ragweed (common ragweed, Ambrosia elatior). The experiment is described as follows: Test A preemergence. To be noted: Ambrosia artemisiifolia, pre-emergence, 240 h. In a few lines:
(§1)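 Seeded soil received test chemicals as a preemergence directed spray, and seedlings at one to two leaves, 2–10 cm tall, received them postemergence, in a non-phytotoxic, surfactant-containing solvent mixture. Pots were held in a greenhouse for approximately 10 d, then rated for injury from 0, no effect, to 100, complete control.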

The subject of experiment [2] is barnyardgrass (Echinochloa crus-galli). The experiment is described as follows: Test A preemergence. To be noted: Echinochloa crus-galli, pre-emergence, 240 h. In a few lines:
as §1

The test system of experiment [3] is ryegrass, Italian (Italian ryegrass, Lolium multiflorum). The experiment is described as follows: Test A preemergence. Conditions: Lolium multiflorum, pre-emergence, 240 h. The gist of the method:
as §1

Experiment [4] concerns giant foxtail (Setaria faberii). The experiment is described as follows: Test A preemergence. Conditions: Setaria faberi, pre-emergence, 240 h. In a few lines: as §1
Experiment [5] concerns pigweed (Amaranthus retroflexus). The experiment is described as follows: Test A preemergence. Conditions: Amaranthus retroflexus, pre-emergence, 240 h.
Experiment [6] deals with Kochia (Kochia scoparia). The experiment is described as follows: Test A preemergence. Conditions: Bassia scoparia, pre-emergence, 240 h. In a few lines: as §1
The test system of experiment [7] is ragweed (common ragweed, Ambrosia elatior). The experiment is described as follows: Test A postemergence. To be noted: Ambrosia artemisiifolia, post-emergence, 240 h, 125 g ai/ha, postemergence, visual injury rating after approximately 10 d; read-out: Ragweed plant response rating (0 to 100 scale, 0 no effect, 100 complete control). The gist of the method:
as §1

Experiment [8] relates to barnyardgrass (Echinochloa crus-galli). The experiment is described as follows: Test A postemergence. To be noted: Echinochloa crus-galli, post-emergence, 240 h, 125 g ai/ha, postemergence, visual injury rating after approximately 10 d; read-out: Barnyardgrass plant response rating (0 to 100 scale, 0 no effect, 100 complete control). The gist of the method:
as §1

The subject of experiment [9] is ryegrass, Italian (Italian ryegrass, Lolium multiflorum). The experiment is described as follows: Test A postemergence. To be noted: Lolium multiflorum, post-emergence, 240 h, 125 g ai/ha, postemergence, visual injury rating after approximately 10 d; read-out: Ryegrass, Italian plant response rating (0 to 100 scale, 0 no effect, 100 complete control). The gist of the method: as §1

In another experiment the test system is corn (Zea mays). The experiment is described as follows: Test A postemergence. Conditions: Zea mays, post-emergence, 240 h, 125 g ai/ha, postemergence, visual injury rating after approximately 10 d; read-out: Corn plant response rating (0 to 100 scale, 0 no effect, 100 complete control). In a few lines: as §1
For experiment [10], the system named is Galium (catchweed bedstraw, Galium aparine). The experiment is described as follows: Test A postemergence. Conditions: Galium, post-emergence, 240 h, 125 g ai/ha, postemergence, visual injury rating after approximately 10 d; read-out: Galium plant response rating (0 to 100 scale, 0 no effect, 100 complete control). In a few lines: as §1
Experiment [11] deals with giant foxtail (Setaria faberii). The experiment is described as follows: Test A postemergence. To be noted: Setaria faberi, post-emergence, 240 h, 125 g ai/ha, postemergence, visual injury rating after approximately 10 d; read-out: Foxtail, Giant plant response rating (0 to 100 scale, 0 no effect, 100 complete control). The gist of the method: as §1
Experiment [12] deals with wheat (Triticum aestivum). The experiment is described as follows: Test A postemergence. To be noted: Triticum aestivum, post-emergence, 240 h, 125 g ai/ha, postemergence, visual injury rating after approximately 10 d; read-out: Wheat plant response rating (0 to 100 scale, 0 no effect, 100 complete control). The gist of the method: as §1
Experiment [13] deals with pigweed (Amaranthus retroflexus). The experiment is described as follows: Test A postemergence. Conditions: Amaranthus retroflexus, post-emergence, 240 h, 125 g ai/ha, postemergence, visual injury rating after approximately 10 d; read-out: Pigweed plant response rating (0 to 100 scale, 0 no effect, 100 complete control). In a few lines:
as §1

For experiment [14], the system named is Kochia (Kochia scoparia). The experiment is described as follows: Test A postemergence. To be noted: Bassia scoparia, post-emergence, 240 h, 125 g ai/ha, postemergence, visual injury rating after approximately 10 d; read-out: Kochia plant response rating (0 to 100 scale, 0 no effect, 100 complete control). In a few lines: as §1

Turning to `Cc1cc(C)cc([C@H]2CNC(=O)[C@@H]2C(=O)Nc2cccc(F)c2F)c1` [Compound 889], the pest or weed control at 125 g/ha in [1] (125 g ai/ha, preemergence, 0 to 100 scale where 0 is no effect and 100 is complete control, read-out: Ragweed plant response rating) was 30%; in experiment [2] (125 g ai/ha, preemergence, 0 to 100 scale where 0 is no effect and 100 is complete control, read-out: Barnyardgrass plant response rating) it was 90%; in [3] (125 g ai/ha, preemergence, 0 to 100 scale where 0 is no effect and 100 is complete control, read-out: Ryegrass, Italian plant response rating), 30%; in [4] (125 g ai/ha, preemergence, 0 to 100 scale where 0 is no effect and 100 is complete control, read-out: Foxtail, Giant plant response rating), 90%; in [5] (125 g ai/ha, preemergence, 0 to 100 scale where 0 is no effect and 100 is complete control, read-out: Pigweed plant response rating) it was 0%; in the experiment on Kochia (Kochia scoparia) [6] (125 g ai/ha, preemergence, 0 to 100 scale where 0 is no effect and 100 is complete control, read-out: Kochia plant response rating), 80%. The pest or weed control at 125 g/ha in experiment [7] came to 0%; in experiment [8], 70%; in experiment [9] it was 40%; in experiment [10] it was 30%; in experiment [11] it was 40%; in [13] it was 0%. In the experiment with Kochia (Kochia scoparia) [14], the pest or weed control at 125 g/ha was found to be 0%. For the same molecule, the pest or weed control at 500 g/ha in experiment [1] (500 g ai/ha, Preemergence, visual injury vs untreated controls after approximately 10 d, read-out: Ragweed plant response rating (0 to 100 scale where 0 is no effect and 100 is complete control)) was determined as 40%; in experiment [2] (500 g ai/ha, Preemergence, visual injury vs untreated controls after approximately 10 d, read-out: Barnyardgrass plant response rating (0 to 100 scale where 0 is no effect and 100 is complete control)) it was 90%; in experiment [3] (500 g ai/ha, Preemergence, visual injury vs untreated controls after approximately 10 d, read-out: Ryegrass, Italian plant response rating (0 to 100 scale where 0 is no effect and 100 is complete control)), 40%; in experiment [4] (500 g ai/ha, Preemergence, visual injury vs untreated controls after approximately 10 d, read-out: Foxtail, Giant plant response rating (0 to 100 scale where 0 is no effect and 100 is complete control)), 90%; in [5] (500 g ai/ha, Preemergence, visual injury vs untreated controls after approximately 10 d, read-out: Pigweed plant response rating (0 to 100 scale where 0 is no effect and 100 is complete control)), 0%; with Kochia (Kochia scoparia) [6] (500 g ai/ha, Preemergence, visual injury vs untreated controls after approximately 10 d, read-out: Kochia plant response rating (0 to 100 scale where 0 is no effect and 100 is complete control)), 80%. In addition, the plant injury at 125 g/ha in the experiment on corn (Zea mays) was 20%; in [12], 0%.
